How the values were obtained:
HeLa cells = assay: MTT assay; format: cell-based; settings: Homo sapiens, 48 h, read-out: Cytotoxicity (HeLa cells)
PBD = settings: cited from earlier work

Molecule	IC50 (HeLa cells)	less PBD-binding affinity than peptide 2 (PBD)
CC[C@@H]1C(=O)N(C)c2cnc(Nc3ccc(C(=O)NC4CCN(C)CC4)cc3OC)nc2N1C1CCCC1 [BI2536]	32 ± 1.6 nM	–
PLHSpT [Ligand 1]	–	approximately 1000 fold
